Values of other authors as cited in patent publication US20070065359A1, “Nanocells for diagnosis and treatment of diseases and disorders” (priority 2005, published 2007).

Target: TF antigen
Details: peptide displayed as a monomer; read-out: affinity for the TF antigen

With “IVWHRWYAWSPASRI [TF antigen-binding peptide, I—V—W—H—R—W—Y-A-W—S—P-A-S—R—I]” as the sequence, how does the Kd read?
The Kd was 600 nM.
